Test results from paper PMC4287973, “Tumor cell-specific inhibition of MYC function using small molecule inhibitors of the HUWE1 ubiquitin ligase” (EMBO Molecular Medicine, 2014).
pIC50: −log10 of the molar value.

Key:
[1] = test system: crypt cultures of normal intestinal epithelial cells; assay: Survival and viability of intestinal crypt (organoid) cultures; conditions: for fraction of individual crypts that died: long-term incubation of primary crypt cultures
Procedure: Murine intestinal crypt cultures were established from wild-type mice of a mixed background (50% C57Bl6J, 50% S129) as previously described (Sato et al, [2009]). Briefly, intestines were isolated and flushed with PBS. Villi were removed by scraping and remaining tissue cut and washed with PBS. Crypt extraction was carried out in PBS + 2 mM EDTA for 30 min at 4 °C. Isolated crypts were washed with PBS and plated in growth factor reduced Matrigel (BD Biosciences). Crypts were grown in Advanced DMEM (Invitrogen) supplemented with N2 (Invitrogen), B27 (Invitrogen), EGF (Peprotech), Noggin (Peprotech), and R-spondin (Peprotech). Media were replaced every 2 days and crypts passaged weekly. […] Organoid survival was scored at this point based on their microscopic appearance. Cell viability was also determined using a CellTiter-Blue Cell Viability Assay (Promega) according to the manufacturer's instructions.
end of the experiment, the number of life crypts was counted by visual inspection.

ITCH = biological target: T1, ITCH (Homo sapiens, UniProt Q96J02); assay: in vitro HECT-domain auto-ubiquitination assay, ITCH; type: biochemical
T1 construct: HECT-domains of multiple ligases auto-ubiquitinate in in vitro assays containing both UBA1 and UbcH5b
T1 sequence (Q96J02 569-903 limits assumed, species assumed): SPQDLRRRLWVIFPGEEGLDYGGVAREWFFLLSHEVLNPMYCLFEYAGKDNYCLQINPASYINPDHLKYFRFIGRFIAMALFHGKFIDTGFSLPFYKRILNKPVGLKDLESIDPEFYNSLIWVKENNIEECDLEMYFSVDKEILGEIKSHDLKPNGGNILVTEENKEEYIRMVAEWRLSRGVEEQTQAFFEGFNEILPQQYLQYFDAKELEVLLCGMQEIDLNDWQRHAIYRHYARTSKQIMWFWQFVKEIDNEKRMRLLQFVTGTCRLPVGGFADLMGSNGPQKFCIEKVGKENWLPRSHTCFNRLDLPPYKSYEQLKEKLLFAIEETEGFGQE

HECW2 = biological target: T2, HECW2 (Homo sapiens, UniProt Q9P2P5); assay: in vitro HECT-domain auto-ubiquitination assay, HECW2; type: biochemical
T2 construct: HECT-domains of multiple ligases auto-ubiquitinate in in vitro assays containing both UBA1 and UbcH5b
T2 sequence (Q9P2P5 1237-1572 limits assumed, species assumed): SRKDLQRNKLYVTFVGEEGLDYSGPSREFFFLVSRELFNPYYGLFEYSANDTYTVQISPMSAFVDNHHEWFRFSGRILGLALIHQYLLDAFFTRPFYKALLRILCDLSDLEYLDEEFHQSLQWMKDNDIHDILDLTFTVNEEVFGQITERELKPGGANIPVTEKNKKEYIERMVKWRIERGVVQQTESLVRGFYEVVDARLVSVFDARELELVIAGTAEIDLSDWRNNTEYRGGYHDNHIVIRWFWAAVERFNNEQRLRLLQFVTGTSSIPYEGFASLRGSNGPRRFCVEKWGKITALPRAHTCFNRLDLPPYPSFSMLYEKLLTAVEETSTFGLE

[2] = test system: MYC target gene sets in Ls174T cells; assay: Microarray gene expression and GSEA in Ls174T cells; type: cell-based, human; conditions: for number of genes downregulated (microarray) / number of genes upregulated (microarray): Ls174T, 24 h, cut-off fold change 2, P < 0.01
Procedure: Finally, shRNA-mediated depletion of p53 (Supplementary Fig S8, upper panel) had no effect on regulation of MYC target genes by either compound (Supplementary Fig S8, lower panel). Collectively, the data establish that these compounds block MYC-dependent transcriptional activation via inhibition of HUWE1 in colon cancer cells.
Control or HUWE1-depleted Ls174T cells were treated with HUWE1 inhibitors or DMSO as control for 24 h. Expression of different MYC-induced target genes was analyzed by RQ–PCR. Error bars show SD of triplicate technical assays from one representative experiment (n = 5). • Time-dependent expression of the differentiation marker MUC2 upon HUWE1 inhibition. Ls174T cells were treated with HUWE1 inhibitors for the indicated times. Error bars show SD of triplicate technical assays from one representative experiment (n = 3). • Gene set enrichment analysis (GSEA) of gene expression changes upon HUWE1 inhibition. Ls174T cells were treated for 24 h with either HUWE1 inhibitor or DMSO as control. RNA was isolated and subjected to a microarray and gene set enrichment analysis. […] P-values were calculated using a test for hypergeometric distribution. • Heat map comparing gene expression after HUWE1 depletion to treatment with HUWE1 inhibitors. The left panel summarizes expression of all genes (n = 10,452) ordered according to their expression after HUWE1 knockdown. […] MYC binding data were taken from HeLa cells. […] The upper panels display examples of MYC-activated gene sets and their response to inhibition of HUWE1.
Microarray analyses were performed on a 44K Whole Human Genome Array (G4845A 026652, Agilent), and raw data were generated with the Feature Extraction software v10.1.1.1 (Agilent).
The P-value was calculated using a one-sample two-tailed Student's t-test with μ = 0. Gene set enrichment analysis (GSEA) was performed using default settings and the C2 gene sets from the MSigDB (www.broadinstitute.org/gsea/msigdb). To compare two GSEA, the normalized enrichment scores (NES) for all repressed gene sets were plotted and gene sets containing > 25% ribosomal protein genes were highlighted. Data are presented as means with standard deviation unless defined differently in the figure legends. P-values were calculated using Student's t-test.

WWP1 = biological target: T3, WWP1 (Homo sapiens, UniProt Q9H0M0); assay: in vitro HECT-domain auto-ubiquitination assay, WWP1; type: biochemical
T3 construct: HECT-domains of multiple ligases auto-ubiquitinate in in vitro assays containing both UBA1 and UbcH5b
T3 sequence (Q9H0M0 588-922 limits assumed, species assumed): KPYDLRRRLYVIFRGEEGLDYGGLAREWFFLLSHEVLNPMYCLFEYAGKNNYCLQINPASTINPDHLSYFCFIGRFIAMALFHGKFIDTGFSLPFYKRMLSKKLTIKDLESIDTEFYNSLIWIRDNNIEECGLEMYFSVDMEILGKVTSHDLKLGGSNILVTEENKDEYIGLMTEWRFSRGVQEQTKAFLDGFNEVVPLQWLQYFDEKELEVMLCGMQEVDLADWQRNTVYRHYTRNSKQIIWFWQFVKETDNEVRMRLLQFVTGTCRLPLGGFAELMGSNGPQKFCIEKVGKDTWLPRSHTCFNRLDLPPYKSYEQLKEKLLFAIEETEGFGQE

NEDD4L = biological target: T4, NEDD4L (Homo sapiens, UniProt Q96PU5); assay: in vitro HECT-domain auto-ubiquitination assay, NEDD4L; type: biochemical
T4 construct: HECT-domains of multiple ligases auto-ubiquitinate in in vitro assays containing both UBA1 and UbcH5b
T4 sequence (Q96PU5 640-974 limits assumed): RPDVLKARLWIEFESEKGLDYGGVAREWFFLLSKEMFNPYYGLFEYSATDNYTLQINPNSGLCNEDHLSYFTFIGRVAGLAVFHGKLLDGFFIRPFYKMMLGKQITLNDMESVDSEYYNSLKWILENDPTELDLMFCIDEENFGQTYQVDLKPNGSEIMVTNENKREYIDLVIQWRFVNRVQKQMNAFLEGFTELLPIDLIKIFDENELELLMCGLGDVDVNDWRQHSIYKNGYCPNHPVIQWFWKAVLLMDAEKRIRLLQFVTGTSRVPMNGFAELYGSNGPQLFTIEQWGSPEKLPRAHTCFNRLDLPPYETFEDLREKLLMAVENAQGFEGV

Ls174T cells = assay: Colony formation assay of Ls174T cells; type: cell-based; conditions: Homo sapiens, 120 h, stained after 5 days, read-out: estimated IC50 colony formation
Procedure: Partial shRNA-mediated depletion of HUWE1 led to a moderate, but highly significant reduction in IC50 value for growth inhibition by BI8622, arguing that growth inhibition is an on-target effect of the inhibitor (Supplementary Fig S6). […] Incubation with either compound retarded passage of Ls174T cells through all phases of the cell cycle, with the effect being strongest for G1. In contrast to colon carcinoma cells, HUWE1 is not required for proliferation of embryonic stem (ES) cells and deletion of HUWE1 instead delays the decrease of N-MYC levels that occurs upon removal of leukemia inhibitory factor (LIF) from the medium (Zhao et al, [2008]). […]
Figure 4 Effect of HUWE1 inhibition on growth and gene expression in epithelial and embryonic stem cells • Colony formation assays documenting growth of Ls174T cells in the presence of the indicated concentrations of HUWE1 inhibitors. […] A quantitation of N-MYC protein levels relative to Vinculin is shown below the blot (n = 3). • RQ–PCR assays documenting expression of MYC target gene expression in murine ES cells (F) and in crypt cultures of normal intestinal epithelial cells (G) upon inhibition of HUWE1. […]
HCT116, HEK293T, HeLa, HT29, ES, Phoenix, and U2OS cells were cultivated in DMEM (Sigma). […] Quantification of crystal violet staining was performed by extracting dye with 10% acetic acid and measuring absorbance at 590 nm. […]

SMILES | Ki67 staining of intestinal crypts ([1]; 10 µM, 24 hr) | MTT assay corrected for number of live crypts ([1]; 10 µM, 24 hr) | number of live crypts, % of all crypts ([1]; 10 µM, 24 hr, visual inspection) [%] | fraction of individual crypts that died [1] | pIC50 (ITCH) | pIC50 (HECW2) | number of genes downregulated (microarray) [2] | number of genes upregulated (microarray) [2] | effect on expression of sets of MYC-activated target genes in HUWE1-depleted cells ([2]; genome-wide analysis, HUWE1-depleted Ls174T cells) | pIC50 (WWP1) | pIC50 (NEDD4L) | pIC50 (Ls174T cells)
Cc1c(C(=O)Nc2ccc(CN)cc2)ncnc1N1CCC(C#N)(c2ccccc2)CC1 [BI8622] | Ki67-positive | no reduction | 68 | around 30% | < 4.30 | < 4.30 | 2,295 | 2,267 | no statistically significant effect | < 4.30 | < 4.30 | 5.08
NCc1cccc(CNc2ncnc3c(N4CCN(Cc5ccccc5)CC4)ncnc23)c1 [BI8626] |  |  |  | 60-80% | < 4.30 | < 4.30 | 2,923 | 2,796 |  | < 4.30 | < 4.30 | 6.15
